Series [1] deals with HIV-1 genomic sequence. The series is described as follows: Effect of pre-reaction incubation time on PCR product (HIV-1 model system). The series is classed as biochemical. Conditions: for amplified product without a pre-reaction incubation (FIG. 4): 0 minutes pre-reaction incubation, compared with extended incubation. As for the experimental part:
Amplifications were carried out using the citraconylated and cis-aconitylated Taq DNA polymerases prepared as described above. For each set of amplification conditions, Taq DNA polymerases modified using a 80-fold and a 160-fold molar excess of citaconic anhydride, and a 90-fold and a 180-fold molar excess of cis-aconitic anhydride were used. Amplifications were carried out using the HIV-1 model system described in Example 6, above, except that the initial pre-reaction incubation was varied. For each enzyme preparation, amplifications were carried out using pre-reaction incubations of 12, 6, 3, and 0 minutes.
As noted above, the pre-reaction incubation step also serves as the initial denaturation step. Each cycle of a PCR begins with a denaturation step. Immediately following the initial pre-reaction incubation carried out at 95° C. for 12, 6, 3, or 0 minutes, each reaction mixture is incubated at 94° C. for 1 minute during the denaturation step of the first cycle. Thus, even when no pre-reaction incubation was used, enzyme activity is recovered during the denaturation step of the initial cycles.
The amplification products were analyzed by agarose gel electrophoresis. The band corresponding to the amplified target sequence is indicated. Bands appearing on the gel other than the band which corresponds to the amplified target sequence correspond to the products generated by the non-specific amplification of non-target sequences.

The subject of series [2] is HIV-1 genomic sequence. The series can be described thus: Effect of amplification cycle number on PCR product (HIV-1 model system). The series is classed as biochemical. Conditions: no pre-reaction incubation; 39, 43, 48, 60 cycles. As for the experimental part:
Amplifications were carried out using the Taq DNA polymerases modified using a 80-fold and a 160-fold molar excess of citraconic anhydride, and a 90-fold and a 180-fold molar excess of cis-aconitic anhydride. The Amplifications were carried out essentially as described above using the HIV-1 model system described in Example 6, except that the initial pre-reaction incubation and cycle numbers were varied. For each enzyme preparation, amplifications were carried out using the following conditions: […]
The amplification products were analyzed by agarose gel electrophoresis.

The test system of series [3] is cloned HTLV-I genomic sequence. The series is described as follows: PCR amplification of HTLV-I with citraconylated Taq DNA polymerase, agarose gel analysis. Conditions: 30 copies HTLV-I template; pre-reaction incubation 90° C. for 10 minutes; enzyme dilutions 1/10-1/80. The series is classed as biochemical. How it is done: Amplifications were carried out using 1/20, 1/40, and 1/80 dilutions of the 240× modified Taq DNA polymerase described in Example 2. Dilutions were made in a buffer consisting of 20 mM Tris-HCl, pH 8.0 (at room temperature), 100 mM KCl, 0.1 mM EDTA (ethylenediaminetetraacetic acid), 1 mM DTT (dithiothreitol), 50% glycerol, 0.5% Tween 20, 0.5% Nonidet P40 (AmpliTaq®storage buffer, Perkin Elmer, Norwalk, Conn.). For comparison, amplifications also were carried out using 1/10, 1/20, 1/40, and 1/80 dilutions of unmodified Taq DNA polymerase.
A cloned HTLV-I genomic sequence was amplified using primers SK432 and SK111. The primer sequences are provided in U.S. Pat. No. 5,418,149, incorporated herein by reference. The PCR was carried out in a 100 μl reaction volume under the following reaction conditions.
30 copies of HTLV-I DNA template
(§1) 200 μM dATP, dCTP, and dGTP
0.5 μl of citraconylated Taq DNA polymerase solution
(§2) 1 unit of UNG (Perkin Elmer, Norwalk, Conn.) […]
The amplified products were analyzed by 4% agarose gel electrophoresis using a 1× TBE (0.089M Tris, 0.089M boric acid, 0.0025M disodium EDTA) running buffer. Electrophoresis was carried out at 100 volts for approximately 2 hours. Ethidium bromide (0.5 μg/ml) was added following electrophoresis to stain any DNA present. The gel was destained in 1× TBE and the ethidium bromide-stained bands of DNA were visualized using UV irradiation. […]

Series [4] relates to HIV-1 genomic sequence. The series can be described thus: PCR amplification of HIV-1 with citraconylated DNA polymerases, agarose gel analysis. Particulars: 100 copies HIV-1 template; pre-reaction incubation 95° C. for 12 minutes; enzyme dilutions 1/10-1/80. The series is classed as biochemical. How it is done:
Amplifications were carried out using dilutions of modified DNA polymerases. Dilutions were made in a buffer consisting of 20 mM Tris-HCl, pH 8.0 (at room temperature), 100 mM KCl,0.1 mM EDTA (ethylenediaminetetraacetic acid), 1 mM DTT (dithiothreitol), 50% glycerol, 0.5% Tween 20, 0.5% Nonidet P40 (AmpliTaq® storage buffer, Perkin Elmer, Norwalk, Conn.).
An HIV-1 genomic sequence was amplified using primers SK145 and SK431 (Perkin Elmer, Norwalk, Conn.). The PCR was carried out in a 100 μl reaction volume under the following reaction conditions.
100 copies of HIV-1 DNA template
as §1
0.5 μl of DNA polymerase solution
as §2
The pre-reaction incubation step also serves as the initial denaturation step. An initial denaturation step is routinely used in a typical amplification reaction to insure complete denaturation of the double-stranded target. Each cycle of the PCR begins with a denaturation step of 94° C. for 1 minute. Thus, immediately following the initial pre-reaction incubation carried out at 95° C. for 12 minutes, the reaction mixture is incubated at 94° C. for 1 minute during the denaturation step of the first cycle.
The amplified products were analyzed by agarose gel electrophoresis (100 ml of 3% NuSieve and 0.5% SeaChem) using a 1× TBE (0.089M Tris, 0.089M boric acid, 0.0025M disodium EDTA) running buffer. Electrophoresis was carried out at 100 volts for approximately 1 hour. Ethidium bromide (0.5 μg/ml) was added following electrophoresis to stain any DNA present. The gel was destained in TBE and the ethidium bromide-stained bands of DNA were visualized using UV irradiation.
Dilutions (1/10, 1/20, 1/40, and 1/80) of the citraconylated DNA polymerases described in Example 5 and the 240× citriconylated Taq DNA polymerase described in Example 2 were used in amplifications of HIV-1 nucleic acid and the amplified products were anaylzed by agarose gel electrophoresis. For comparison, amplifications were carried out using dilutions of unmodified Taq DNA polymerase. […]

A short description of series [5]: Storage stability of inactivated enzyme. The series is classed as physicochemical. Particulars: stored at 25° C.

As for “cis-aconitylated DNA polymerase: Taq DNA polymerase modified using cis-aconitic anhydride (90× and 180× preparations)”, in the series on HIV-1 genomic sequence [1], the “amplified product without a pre-reaction incubation (FIG. 4)” value was “nearly as much product as the amplifications using an extended pre-reaction incubations”. The “amplified product band over pre-reaction incubation times (FIG. 4)” value in the series on HIV-1 genomic sequence [1] (pre-reaction incubations of 12, 6, 3 and 0 minutes at 95° C.) is “all pre-reaction incubation times resulted in a strong band corresponding to amplified product”. For the same molecule, the “effect of increasing the amplification cycle number on amplified product (FIG. 5)” value with HIV-1 genomic sequence [2] is recorded as “The effect was smallest”.

As to “citraconylated Taq DNA polymerase: Taq DNA polymerase modified using citraconic anhydride; 240× in Examples 4 and 6, 80× and 160× in Examples 9 and 10”, the “amplified target band versus non-specific amplification products (FIG. 2)” value in series [3] was “significant increase in the intensity of the band corresponding to the amplified target sequence, and a significant decrease in the intensity of the bands corresponding to non-specific amplification products”. Also, the “amplified target band versus non-specific amplification products (FIG. 3)” value in the series on HIV-1 genomic sequence [4] is on record as “intense band corresponding to the amplified target sequence for all but the 1/80 dilution”. For the same molecule, the “amplified product without a pre-reaction incubation (FIG. 4)” value with HIV-1 genomic sequence [1] is “significantly less amplified product”. Also, in the series with HIV-1 genomic sequence [1] (95° C. pre-reaction incubation), the “pre-reaction incubation required to obtain the maximum amount of amplified product” value is listed as “at least 3 minutes”. Also, the “storage stability: time enzyme remains inactivated” value in series [5] is reported as “remain inactivated for at least four weeks”.

For the molecule “unmodified Taq DNA polymerase: Taq DNA polymerase (AmpliTaq®, Perkin Elmer), unmodified comparison enzyme [reference compound]”, in series [3], the “amplified target band versus non-specific amplification products (FIG. 2)” value is given as “predominantly non-specific amplification product”. The “amplified target band versus non-specific amplification products (FIG. 3)” value in the series on HIV-1 genomic sequence [4] is given as “predominantly non-specific amplification product”.

B1: citraconylated rTth: citraconylated thermostable DNA polymerase from Thermus thermophilus (protein, UniProt P52028 1-834, looked up)
DNA polymerase I, thermostable: MEAMLPLFEPKGRVLLVDGHHLAYRTFFALKGLTTSRGEPVQAVYGFAKSLLKALKEDGYKAVFVVFDAKAPSFRHEAYEAYKAGRAPTPEDFPRQLALIKELVDLLGFTRLEVPGYEADDVLATLAKKAEKEGYEVRILTADRDLYQLVSDRVAVLHPEGHLITPEWLWEKYGLRPEQWVDFRALVGDPSDNLPGVKGIGEKTALKLLKEWGSLENLLKNLDRVKPENVREKIKAHLEDLRLSLELSRVRTDLPLEVDLAQGREPDREGLRAFLERLEFGSLLHEFGLLEAPAPLEEAPWPPPEGAFVGFVLSRPEPMWAELKALAACRDGRVHRAADPLAGLKDLKEVRGLLAKDLAVLASREGLDLVPGDDPMLLAYLLDPSNTTPEGVARRYGGEWTEDAAHRALLSERLHRNLLKRLEGEEKLLWLYHEVEKPLSRVLAHMEATGVRLDVAYLQALSLELAEEIRRLEEEVFRLAGHPFNLNSRDQLERVLFDELRLPALGKTQKTGKRSTSAAVLEALREAHPIVEKILQHRELTKLKNTYVDPLPSLVHPRTGRLHTRFNQTATATGRLSSSDPNLQNIPVRTPLGQRIRRAFVAEAGWALVALDYSQIELRVLAHLSGDENLIRVFQEGKDIHTQTASWMFGVPPEAVDPLMRRAAKTVNFGVLYGMSAHRLSQELAIPYEEAVAFIERYFQSFPKVRAWIEKTLEEGRKRGYVETLFGRRRYVPDLNARVKSVREAAERMAFNMPVQGTAADLMKLAMVKLFPRLREMGARMLLQVHDELLLEAPQARAEEVAALAKEAMEKAYPLAVPLEVEVGMGEDWLSAKG
modifications: citraconylated
For the molecule B1, the “amplified target band versus non-specific amplification products (FIG. 3)” value in the series on HIV-1 genomic sequence [4] is “greater production of specific amplification product than seen in amplifications using unmodified Taq DNA polymerase”.

Values taken from US5677152A, “Nucleic acid amplification using a reersibly inactivated thermostable enzyme” (Roche Molecular Systems, Inc., priority 1996, dated 1997).
